In this experiment the test system is Phage litmus.

“And” between values parts separate entries of the source, which are not always exact repeats. Identical values can stand only once.

Take `CCCCCC` [Hexane, n-hexane]: the “Color change of Phage litmus bands upon exposure” value (“Color change” below) was “immediately changed color”; the “Red-green-blue (RGB) color differences R3” value was 0.69 and 0.99 and 0.53; the “Time in which all color matrices of the Phage litmus responded” value (“Time in which all color matrices” below) was 30 s.

As to `CCO` [EtOH, ethanol], the “Color change” value is recorded as “immediately changed color”; the “Red-green-blue (RGB) color differences G3” value was 3.32 and 2.87 and 2.98; the “Red-green-blue (RGB) color differences R1” value was 1.22 and 1.81 and 1.06; the “Red-green-blue (RGB) color differences R3” value was 2.54 and 1.97 and 2.26. Further, the “Time in which all color matrices” value amounted to 30 s.

`CCOCC` [Ether, diethyl ether]: the “Color change” value was “immediately changed color”; the “Red-green-blue (RGB) color differences G1” value was 0.38 and 0.56 and 0.39; the “Red-green-blue (RGB) color differences R1” value is 1.31 and 1.20 and 1.24; the “Red-green-blue (RGB) color differences R3” value was 1.15 and 1.53 and 0.91. Besides, the “Red-green-blue (RGB) color differences R4” value is 1.30 and 1.54 and 1.12; the “Time in which all color matrices” value was 30 s.

The values above are taken from patent publication US10801054B2 (priority 2013, dated 2020).
